Assay results published in patent US20140314791A1, “METHODS OF TREATING CANCER” (DANA-FARBER CANCER INSTITUTE, INC., priority 2012, published 2014).

Legend:
[1] = tested on: Lkb1-wt (634, 855, and 857) cells; experiment: Cell proliferation assay with CHEK1 inhibitors (CCK-8), Lkb1-wt; assay type: cell-based, mouse; settings: read-out: 50% growth inhibition (GI50) concentration
[2] = tested on: Lkb1-null (t2, t4, and t5) cells; experiment: Cell proliferation assay with CHEK1 inhibitors (CCK-8), Lkb1-null; assay type: cell-based, mouse
Lkb1-null cells = experiment: Array-based viral infection and cell proliferation assay (validation), Lkb1-null; set-up: species or system mouse; settings: for Growth of Lkb1-wt/Lkb1-null in array-based validation: Table 6; for Null ave-GR: validation, 5 days post infection, alamarBlue
Description: (§1) (C) Validation study. Relative viability of Lkb1-wt and Lkb1-null cells infected with 340 individual hairpins for 5 days. Genes of interest are highlighted by the colors indicated.
(§2) For array-based viral infection and assessment of proliferation, 2.5 μl virus was mixed with 250 cells in 100 μl medium containing 8 μg/ml polybrene per well in 96-well plates. The plates were spun at 2250 rpm/37° C. for 30 min. Immediately after spinning, supernatants were gently aspirated off and 100 μl fresh medium was added to each well of the 96-well plates. After 2 days incubation, medium was gently aspirated off and 100 fresh medium containing 3 μg/ml puromycin was added to each well of the 96-well plates. The plates were back to culture for additional 3 days and then the viable cells were monitored by alamarBlue (Invitrogen) assay according to manufacturer's instructions.
(§3) To identify Lkb1-null-selective essential genes, a synthetic lethal screen was performed using a pooled 40K murine shRNA lentiviral library for each of the Lkb1-wt and Lkb1-null cell lines described above. Relative abundance of shRNAs in each cell line sample was determined by deep-sequencing analysis, and for every shRNA, a log 2 Fold Change (log 2FC) value was calculated from the difference in relative abundance at a late time point after infection versus the initial shRNA-infected sample. An unsupervised hierarchical clustering analysis of the ranked hairpins from the triplicate pooled shRNA library screens of Lkb1-wt and Lkb1-null mouse cancer cells is shown in FIG. 1A. […] The ranked hairpins were collapsed by using two methods, a RIGER analysis (KS t-test based statistics) and a weighted second best analysis to rank genes that selectively impaired proliferation/viability in Lkb1-null cells. A union of 344 genes, identified by the top 100 individual hairpins for 88 genes (Table 1) and the top 200 genes from both the KS (Table 2) and weighted second best (Table 3), was nominated as the initial prioritized list (FIG. 1B). 340 shRNAs, targeting 70 candidate genes from this prioritized list, were chosen for validation (Table 4). The 70 genes consisted of the top 10 candidates from the KS analysis, as well as 60 others involved in a range of biological processes in an attempt to represent all biological categories in the validation process. Validation was performed in an array format with an assay of relatively short duration (5 days post infection) compared to the primary pooled screen (28 days), which should be a more stringent selection, as it required the anti-proliferative effects to manifest in a short time period. […] Dtymk, Check1, and Pdhb are the top 3 candidate genes, each with 3 hairpins that scored in the validation assay (FIG. 1C).

[3] = tested on: Lkb1-null versus Lkb1-wt cell lines; experiment: Large-scale pooled shRNA library screening (murine 40K pool); assay type: cell-based, mouse; settings: for Hairpin-rank in pooled shRNA screen: Table 6; for # Hairpins 1000: number of the gene's hairpins ranked within 1000; for # Hairpins 5000: number of the gene's hairpins ranked within 5000; for # Hairpins 10000: number of the gene's hairpins ranked within 10000
Lkb1-wt cells = experiment: Array-based viral infection and cell proliferation assay (validation), Lkb1-wt; set-up: species or system mouse; settings: 5 days post infection, alamarBlue
Description: as §1, §2, §3

[4] = tested on: Lkb1-wt (634, 855, and 857) and Lkb1-null (t2, t4, and t5) cells; experiment: Proliferation assay of shRNA-transduced cells (CellTiter-Glo); assay type: cell-based, mouse; settings: in vitro, puromycin 3 μg/ml
Description: Viable cells were measured daily using Promega's CellTiter-Glo Assay. Two independent sets of transductions into the 6 cell lines were shown: the first set used shGFP, shDtymk-1, and shChek1-4 (upper panels), and the second set used shGFP, shDtymk-3, and shChek1-1 (lower panels).
Lentiviral production and target cell transduction were performed according to previously description (Moffat et al., 2006). Briefly, 293T cells were co-transfected with pLenti-vector, pCMV-dR8.74psPAX2, and pMD2.G using TransIT-LT1 transfection reagent (Mirus). Thirty-six h after transfection, the supernatant was harvested and spun at 3000 rpm/4° C. for 10 min, and then incubated with target cells in the presence of 8 μg/ml polybrene (Sigma) for 24 h. Two days after infection, the cells were collected for further analysis as indicated in the presence of 3 μg/ml Puromycin (Invitrogen).
Cells were plated into 96-well plates at 2000 cells per well in 100 μl, with addition of puromycin at 3 μg/ml for shRNA lentivirus infected cells, or with addition of variable doses of drug for drug treatment effects. Viable cells were measured daily or for a period of up to 3 days either by CellTiter-Glo Luminescent Cell Viability Assay (Promega) or by Cell Counting Kit-8 (CCK-8) (Dojindo) according to the manufacturer's instructions. All proliferation assays were performed in triplicate wells.
Depletion of DTYMK and CHEK1 was confirmed by Western blot (FIG. 11B).

Chek1 = settings: Lkb1-wt 634 cells, normalized to shGFP
[5] = tested on: Lkb1-wt (634 and 857) and Lkb1-null (t2 and t4) tumors; experiment: Tumor development of shRNA-transduced cells implanted into athymic nude mice; assay type: in vivo; settings: doxycycline treatment for 3 weeks
Description: (C) 1×10^6 Lkb1-wt (634 and 857) and Lkb1-null (t2 and t4) cells transduced with the indicated shRNA were implanted into athymic nude mice for 3 weeks. Tumor volume (mm^3) was calculated as […]. The data represent mean±SD for 4 mice. Lkb1-wt 634 and Lkb1-null t4 tumors with the indicated shRNAs were shown (D).
To investigate whether reduced expression of Dtymk or Chek1 inhibited tumor development in vivo, Lkb1-wt (634 and 857) and Lkb1-null (t2 and t4) cells transduced with pTetOn-shGFP, pTetOn-shDtymk-3, or pTetOn-shChek1-4 were implanted into athymic nude mice.

Dtymk = experiment: QPCR analysis of Dtymk knockdown in Lkb1-wt 634 cells; settings: normalized to shGFP
[6] = gene-level KS score over all hairpins of the gene (Table 2, Top 200 genes by KS), only the first hairpin id is printed
[7] = rank of the gene by NES, KS analysis

Substance	Growth of Lkb1-wt/Lkb1-null in array-based validation (Lkb1-null cells)	Null ave-GR (Lkb1-null cells)	Hairpin-rank in pooled shRNA screen [3]	WT ave-GR (Lkb1-wt cells)	cell growth compared to shGFP control, Lkb1-null versus Lkb1-wt [4]	mRNA remaining (by qPCR) (Chek1)	mRNA remaining (by qPCR) (Dtymk)	further results
AZD7762	–	–	–	–	–	–	–	GI50 [1]: 0.275 µM; inhibition of Lkb1-null cells stronger than Lkb1-wt cells [2]: 3 fold; GI50 ([2]; read-out: 50% growth inhibition (GI50) concentration): 0.09 µM
shChek1-1: shRNA hairpin GCTGTGAATAGAATAACTGAA targeting Mouse Chek1	2.14	0.73	327	1.57	inhibited Lkb1-null cell growth more strongly than the growth of Lkb1-wt cells	35.50%	–	–
shChek1-2: shRNA hairpin GCCACGAGAATGTAGTGAAAT targeting Mouse Chek1	1.26	0.85	14869	1.07	–	43.90%	–	–
shChek1-3: shRNA hairpin CCCATGTAGTAGTATCACTTT targeting Mouse Chek1	1.64	0.27	23815	0.45	–	42.10%	–	NES [3, 6]: 1.57; NES ([3]; gene-level normalized enrichment score over all hairpins of the gene): 1.520; Gene rank ([3]; gene-level rank by NES): 119; # Hairpins 500 ([3]; number of the gene's hairpins ranked within 500): 1; # Hairpins 1000 [3]: 1; # Hairpins 5000 [3]: 1; # Hairpins 10000 [3]: 1; # HP 500 ([3]; number of the gene's hairpins ranked within top 500): 1; # HP 1000 ([3]; number of the gene's hairpins ranked within top 1000): 1; # HP 5000 ([3]; number of the gene's hairpins ranked within top 5000): 1; # HP 10000 ([3]; number of the gene's hairpins ranked within top 10000): 1; Gene rank [3, 7]: 61
shChek1-4: shRNA hairpin GTGGAAGAAGAGTTGTATGAA targeting Mouse Chek1	2.31	0.30	26693	0.70	inhibited Lkb1-null cell growth more strongly than the growth of Lkb1-wt cells	30.20%	–	tumor growth of Lkb1-null tumors expressing shRNA versus shGFP and Lkb1-wt tumors [5]: grew significantly slower
shChek1-5: shRNA hairpin GCAACGGTATTTCGGCATAAT targeting Mouse Chek1	1.2	0.96	23858	1.15	–	40.70%	–	–
shDtymk-2: shRNA hairpin CTTCTCTGCAAACCGCTGGGA targeting Mouse Dtymk	1.18	1.03	19621	1.21	–	–	66.70%	–
shDtymk-3: shRNA hairpin ACGGAACTAGAGGATCACTCT targeting Mouse Dtymk	2.96	0.28	100	0.83	inhibition was stronger in Lkb1-null cells	–	27.80%	tumor growth of Lkb1-null tumors expressing shRNA versus shGFP and Lkb1-wt tumors [5]: grew significantly slower; Hairpin rank ([3]; Top 100 shRNAs, ranked hairpin list of selectively essential hairpins in Lkb1-null background (log2FC)): 98
shDtymk-4: shRNA hairpin GAAATCGGCAAGCTTCTGAAT targeting Mouse Dtymk (also Human DTYMK)	1.67	0.51	28546	0.85	–	–	51.10%	–
shDtymk-5: shRNA hairpin CAAGACCACGCAGGCCCTCAA targeting Mouse Dtymk (also Human DTYMK)	1.05	1.06	5760	1.11	–	–	77.90%	NES [3, 6]: 1.53; # Hairpins 1000 [3]: 1; # Hairpins 5000 [3]: 1; # Hairpins 10000 [3]: 2; Gene rank [3, 7]: 103
